These results are taken from ChEMBL document CHEMBL3425466, “Light-switched inhibitors of protein tyrosine phosphatase PTP1B based on phosphonocarbonyl phenylalanine as photoactive phosphotyrosine mimetic” (Bioorg Med Chem, 2015).

pKi: −log10 of the molar value. Calls of active or inactive are those of the source. No cut-off for these calls is given here. Numbered stars: 1 amine (or outer) side, 2 acyl side, 3 side chain; on linkers, the order of the positions; unused ones are H or OH. Square brackets hold non-standard residues; d marks the D form. Peptide text beside a SMILES is read from it. X1 = O=C(c1ccc(C[C@H](N[*:1])C(=O)[*:2])cc1)P(=O)(O)O

Data set [1] in a line: Photodimerization of the compound exposed to UV irradiation in presence of DTT. It is filed as physicochemical.
Data set [2] is described as follows: Photodimerization of the compound exposed to UV irradiation in presence of TEMPO radical. It is filed as physicochemical.
Data set [3] concerns the target T1, Tyrosine-protein phosphatase non-receptor type 1 (Homo sapiens, UniProt P18031).
T1 sequence (P18031 whole entry): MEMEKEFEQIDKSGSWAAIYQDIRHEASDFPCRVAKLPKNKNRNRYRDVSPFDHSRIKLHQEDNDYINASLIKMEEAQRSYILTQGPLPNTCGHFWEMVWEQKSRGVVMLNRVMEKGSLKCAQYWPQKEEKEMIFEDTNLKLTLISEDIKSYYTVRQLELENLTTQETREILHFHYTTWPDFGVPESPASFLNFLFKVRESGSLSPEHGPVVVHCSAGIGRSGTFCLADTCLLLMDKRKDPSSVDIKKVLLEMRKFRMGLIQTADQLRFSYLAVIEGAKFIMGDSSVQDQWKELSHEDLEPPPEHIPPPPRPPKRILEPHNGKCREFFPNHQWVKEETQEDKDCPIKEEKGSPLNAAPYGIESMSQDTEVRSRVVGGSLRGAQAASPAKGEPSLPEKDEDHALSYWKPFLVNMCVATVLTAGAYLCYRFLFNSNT
Kind of data set: Inhibition of PTP1B catalytic domain (1 to 321 amino acids) (unknown origin) expressed in Escherichia coli Rosetta (DE3) incubated for 30 mins in absence of UV irradiation with 365 nm for 45 mins and in presence of 1 mM DTT by pNPP assay.

Data set [4] addresses T1, Tyrosine-protein phosphatase non-receptor type 1. The data set is described as follows: Inhibition of PTP1B catalytic domain (1 to 321 amino acids) (unknown origin) expressed in Escherichia coli Rosetta (DE3) incubated for 30 mins followed by UV irradiation with 365 nm for 45 mins in presence of 1 mM DTT by pNPP assay.
Data set [5] addresses T2, Tyrosine-protein phosphatase non-receptor type 1 (Homo sapiens) (UniProt P18031).
T2 sequence (whole entry): T1 sequence (P18031 whole entry)
The following applies: 35 uM.
Description: Inhibition of PTP1B catalytic domain (1 to 321 amino acids) (unknown origin) expressed in Escherichia coli Rosetta (DE3) at 35 uM incubated for 30 mins followed by UV irradiation with 365 nm for 45 mins in presence of 100 uM DTT by pNPP assay

Data set [6] has as its target T1, Tyrosine-protein phosphatase non-receptor type 1. Kind of data set: Inhibition of PTP1B catalytic domain (1 to 321 amino acids) (unknown origin) expressed in Escherichia coli Rosetta (DE3) incubated for 30 mins in absence of UV irradiation with 365 nm for 45 mins by pNPP assay.
For data set [7] the target is unchanged. The data set is described as follows: Inhibition of PTP1B catalytic domain (1 to 321 amino acids) (unknown origin) expressed in Escherichia coli Rosetta (DE3) incubated for 30 mins followed by UV irradiation with 365 nm for 45 mins by pNPP assay.
Data set [8] has as its target T2, Tyrosine-protein phosphatase non-receptor type 1 (Homo sapiens). The following applies: 10 uM.
Description: Inhibition of PTP1B catalytic domain (1 to 321 amino acids) (unknown origin) expressed in Escherichia coli Rosetta (DE3) at 10 uM incubated for 30 mins followed by UV irradiation with 365 nm for 45 mins by pNPP assay
The target is the same in data set [9]. The following applies: 10 uM. This is another data set of the same source.
Description: Inhibition of PTP1B catalytic domain (1 to 321 amino acids) (unknown origin) expressed in Escherichia coli Rosetta (DE3) at 10 uM incubated for 30 mins followed by UV irradiation with 365 nm for 45 mins in presence of 1 mM DTT by pNPP assay

For the compound `Cc1ccc(C(=O)P(=O)(O)O)cc1`, the Activity entry in [1] and in data set [2] was “Not Active” in each case.
In general, pKi refers to the negative decadic logarithm of the Ki, by convention in mol/L. Turning to `CC(=O)N[C@@H](CC(=O)O)C(=O)N[C@@H](C)C(=O)N[C@@H](CC(=O)O)C(=O)N[C@@H](CCC(=O)O)C(=O)N[C@@H](Cc1ccc(C(=O)P(=O)(O)O)cc1)C(=O)N[C@@H](CC(C)C)C(N)=O` (Ac-DADE[X1]L-NH2), the pKi in [3] is 4.76; in [4], 4.89; in data set [6], 4.52; in data set [7] it was 6.41. Besides, in data set [5], the inhibition result was “inactive”.
Regarding `CC[C@H](C)[C@H](NC(=O)[C@H](Cc1ccc(C(=O)P(=O)(O)O)cc1)NC(=O)[C@H](CC(N)=O)NC(C)=O)C(=O)N[C@@H](CC(=O)O)C(=O)N[C@@H](CC(C)C)C(=O)N[C@@H](CC(=O)O)C(N)=O` (Ac-N[X1]IDLD-NH2), in data set [8], the inhibition result was “Active”. Further, the inhibition result in data set [9] was “inactive”. Besides, the negative-log Ki (pKi) in [6] was 4.31; in data set [7], 6.39.
